{
  "source": "paper PMC10088252",
  "settings": "600 mg QD (n=10)",
  "protocol": "Dose adjustment was allowed according to the severity of toxicity [Supplementary Table 1].\nThe primary endpoints were safety, ORR and DCR assessed by investigators. […] AEs referred to treatment-emergent adverse events (TEAEs) and TRAEs were assessed by investigators. Serious adverse events (SAEs) referred to AEs meeting at least one of the following criteria: event leading to death; life-threatening event; event requiring hospitalization or extension of hospital stay; event leading to persistent or evident disability or dysfunction; event leading to congenital malformation or birth defect or event which might lead to injury or that need medical treatment to avoid the above mentioned important medical events.",
  "data": [
    {"smiles": "O=C(Nc1ccc(Oc2ccnc3c2CCN3)c(F)c1)c1c[nH]cc(-c2ccc(F)cc2)c1=O", "values": [
      {"measurement": "TRAE Decreased Ccr, any grade", "value": "2 (20.0) n (%)"},
      {"measurement": "TRAE Decreased Ccr, grade 3-4", "value": "0 n (%)"},
      {"measurement": "TRAE Decreased appetite, any grade", "value": "1 (10.0) n (%)"},
      {"measurement": "TRAE Decreased appetite, grade 3-4", "value": "1 (10.0) n (%)"},
      {"measurement": "TRAE Diarrhoea, any grade", "value": "1 (10.0) n (%)"},
      {"measurement": "TRAE Diarrhoea, grade 3-4", "value": "0 n (%)"},
      {"measurement": "TRAE Dizziness, any grade", "value": "0 n (%)"},
      {"measurement": "TRAE Dizziness, grade 3-4", "value": "0 n (%)"},
      {"measurement": "TRAE Dry mouth, any grade", "value": "0 n (%)"},
      {"measurement": "TRAE Dry mouth, grade 3-4", "value": "0 n (%)"},
      {"measurement": "TRAE Dysgeusia, any grade", "value": "5 (50.0) n (%)"},
      {"measurement": "TRAE Dysgeusia, grade 3-4", "value": "1 (10.0) n (%)"},
      {"measurement": "TRAE Dyskinesia, any grade", "value": "1 (10.0) n (%)"},
      {"measurement": "TRAE Dyskinesia, grade 3-4", "value": "1 (10.0) n (%)"},
      {"measurement": "TRAE Dysphonia, any grade", "value": "1 (10.0) n (%)"},
      {"measurement": "TRAE Dysphonia, grade 3-4", "value": "0 n (%)"},
      {"measurement": "TRAE Dyspnoea, any grade", "value": "1 (10.0) n (%)"},
      {"measurement": "TRAE Dyspnoea, grade 3-4", "value": "1 (10.0) n (%)"},
      {"measurement": "TRAE Electrocardiogram QT prolonged, any grade", "value": "0 n (%)"},
      {"measurement": "TRAE Electrocardiogram QT prolonged, grade 3-4", "value": "0 n (%)"},
      {"measurement": "TRAE Elevated ALT, any grade", "value": "3 (30.0) n (%)"},
      {"measurement": "TRAE Elevated ALT, grade 3-4", "value": "0 n (%)"},
      {"measurement": "TRAE Elevated AST, any grade", "value": "1 (10.0) n (%)"},
      {"measurement": "TRAE Elevated AST, grade 3-4", "value": "0 n (%)"},
      {"measurement": "TRAE Elevated D dimer, any grade", "value": "1 (10.0) n (%)"},
      {"measurement": "TRAE Elevated D dimer, grade 3-4", "value": "0 n (%)"},
      {"measurement": "TRAE Elevated GGT, any grade", "value": "0 n (%)"},
      {"measurement": "TRAE Elevated GGT, grade 3-4", "value": "0 n (%)"},
      {"measurement": "TRAE Elevated LDH, any grade", "value": "0 n (%)"},
      {"measurement": "TRAE Elevated LDH, grade 3-4", "value": "0 n (%)"},
      {"measurement": "TRAE Elevated alpha-HBDH, any grade", "value": "0 n (%)"},
      {"measurement": "TRAE Elevated alpha-HBDH, grade 3-4", "value": "0 n (%)"},
      {"measurement": "TRAE Elevated bilirubin, any grade", "value": "2 (20.0) n (%)"},
      {"measurement": "TRAE Elevated bilirubin, grade 3-4", "value": "0 n (%)"},
      {"measurement": "TRAE Elevated blood creatinine, any grade", "value": "1 (10.0) n (%)"},
      {"measurement": "TRAE Elevated blood creatinine, grade 3-4", "value": "0 n (%)"},
      {"measurement": "TRAE Elevated creatine phosphokinase, any grade", "value": "0 n (%)"},
      {"measurement": "TRAE Elevated creatine phosphokinase, grade 3-4", "value": "0 n (%)"},
      {"measurement": "TRAE Elevated serum urea, any grade", "value": "0 n (%)"},
      {"measurement": "TRAE Elevated serum urea, grade 3-4", "value": "0 n (%)"},
      {"measurement": "TRAE Elevated troponin, any grade", "value": "0 n (%)"},
      {"measurement": "TRAE Elevated troponin, grade 3-4", "value": "0 n (%)"},
      {"measurement": "TRAE Genital rash, any grade", "value": "1 (10.0) n (%)"},
      {"measurement": "TRAE Genital rash, grade 3-4", "value": "0 n (%)"},
      {"measurement": "TRAE Haematuria, any grade", "value": "0 n (%)"},
      {"measurement": "TRAE Haematuria, grade 3-4", "value": "0 n (%)"},
      {"measurement": "TRAE Headache, any grade", "value": "0 n (%)"},
      {"measurement": "TRAE Headache, grade 3-4", "value": "0 n (%)"},
      {"measurement": "TRAE Hyperhidrosis, any grade", "value": "0 n (%)"},
      {"measurement": "TRAE Hyperhidrosis, grade 3-4", "value": "0 n (%)"},
      {"measurement": "TRAE Hyperlipidaemia, any grade", "value": "0 n (%)"},
      {"measurement": "TRAE Hyperlipidaemia, grade 3-4", "value": "0 n (%)"},
      {"measurement": "TRAE Hypertension, any grade", "value": "2 (20.0) n (%)"},
      {"measurement": "TRAE Hypertension, grade 3-4", "value": "1 (10.0) n (%)"},
      {"measurement": "TRAE Hypoaesthesia oral, any grade", "value": "0 n (%)"},
      {"measurement": "TRAE Hypoaesthesia oral, grade 3-4", "value": "0 n (%)"},
      {"measurement": "TRAE Hypocalcaemia, any grade", "value": "1 (10.0) n (%)"},
      {"measurement": "TRAE Hypocalcaemia, grade 3-4", "value": "0 n (%)"},
      {"measurement": "TRAE Hypotension, any grade", "value": "0 n (%)"},
      {"measurement": "TRAE Hypotension, grade 3-4", "value": "0 n (%)"},
      {"measurement": "TRAE Insomnia, any grade", "value": "0 n (%)"},
      {"measurement": "TRAE Insomnia, grade 3-4", "value": "0 n (%)"},
      {"measurement": "TRAE Leukopenia, any grade", "value": "1 (10.0) n (%)"},
      {"measurement": "TRAE Leukopenia, grade 3-4", "value": "0 n (%)"},
      {"measurement": "TRAE Nausea, any grade", "value": "0 n (%)"},
      {"measurement": "TRAE Nausea, grade 3-4", "value": "0 n (%)"},
      {"measurement": "TRAE Neuritis, any grade", "value": "2 (20.0) n (%)"},
      {"measurement": "TRAE Neuritis, grade 3-4", "value": "0 n (%)"},
      {"measurement": "TRAE Occult blood, any grade", "value": "1 (10.0) n (%)"},
      {"measurement": "TRAE Occult blood, grade 3-4", "value": "0 n (%)"},
      {"measurement": "TRAE Oedema peripheral, any grade", "value": "1 (10.0) n (%)"},
      {"measurement": "TRAE Oedema peripheral, grade 3-4", "value": "0 n (%)"},
      {"measurement": "TRAE Onycholysis, any grade", "value": "0 n (%)"},
      {"measurement": "TRAE Onycholysis, grade 3-4", "value": "0 n (%)"},
      {"measurement": "TRAE Oropharyngeal pain, any grade", "value": "1 (10.0) n (%)"},
      {"measurement": "TRAE Oropharyngeal pain, grade 3-4", "value": "1 (10.0) n (%)"},
      {"measurement": "TRAE PPE, any grade", "value": "1 (10.0) n (%)"},
      {"measurement": "TRAE PPE, grade 3-4", "value": "0 n (%)"},
      {"measurement": "TRAE Paraesthesia, any grade", "value": "0 n (%)"},
      {"measurement": "TRAE Paraesthesia, grade 3-4", "value": "0 n (%)"},
      {"measurement": "TRAE Proteinuria, any grade", "value": "1 (10.0) n (%)"},
      {"measurement": "TRAE Proteinuria, grade 3-4", "value": "0 n (%)"},
      {"measurement": "TRAE Pruritus, any grade", "value": "0 n (%)"},
      {"measurement": "TRAE Pruritus, grade 3-4", "value": "0 n (%)"}
    ]}
  ]
}
